From article PMC8123395, “Aggregation and Its Influence on the Bioactivities of a Novel Antimicrobial Peptide, Temporin-PF, and Its Analogues” (International Journal of Molecular Sciences, 2021) come the findings set out here.

Data set [1] deals with Enterococcus faecalis (NCTC 12697). It is filed as cell-based. The settings on record: NCTC 12697, pH 7.4. On the procedure:
(§1) The minimum inhibitory concentration (MIC) and minimum bactericidal concentration (MBC) of peptides against the selected microorganisms were determined using the broth-dilution method, as described in the previous study. […] were used in the assay: Gram-positive bacteria Staphylococcus aureus (NCTC 10788), Enterococcus faecalis (NCTC 12697), and methicillin-resistant S. aureus (MRSA) (NCTC 12493); Gram-negative bacteria Escherichia coli (NCTC 10418), Pseudomonas aeruginosa (ATCC 27853), and Klebsiella pneumoniae (ATCC 43816). All the strains were cultured in Mueller Hinton Broth (MHB), pH 7.4 (Oxiod, Basingstoke, UK). Each peptide was tested at the final concentration from 128 to 1 µM in two-fold dilution. Norfloxacin was applied as the positive control.

In data set [2] the test system is Escherichia coli (NCTC 10418). It is filed as cell-based. The following applies: NCTC 10418, pH 7.4. The procedure:
as §1

Data set [3] concerns Klebsiella pneumoniae (ATCC 43816). It is filed as cell-based. The settings on record: ATCC 43816, pH 7.4. The procedure:
as §1

In data set [4] the test system is Pseudomonas aeruginosa (ATCC 27853). It is filed as cell-based. The settings on record: ATCC 27853, pH 7.4. On the procedure: as §1
Data set [5] deals with Staphylococcus aureus (NCTC 10788). It is filed as cell-based. The settings on record: NCTC 10788, pH 7.4. The procedure: as §1
Data set [6] has as its system methicillin-resistant S. aureus (MRSA) (NCTC 12493). It is filed as cell-based. The following applies: NCTC 12493, pH 7.4. The procedure: as §1
Data set [7] concerns S. aureus (NCTC 10788). The data set can be described thus: SYTOX Green stain uptake assay (membrane permeabilization). It is filed as cell-based. The following applies: peptide 10 µM, within 120 min, 37 °C, relative to 70% isopropanol-treated cells, three replicates. The procedure:
Figure 10 Membrane permeabilization effect of TPF and the analogs (10 µM) on Gram-positive bacteria S. aureus was indicated by the uptake of SYTOX Green dye over 120 min. The error bar represents SD of three replicates.
A membrane permeability assay was conducted on S. aureus (NCTC 10788) and E.coli (NCTC 10418) using the SYTOX™ Green Nucleic Acid Stain (Thermo Fisher Scientific, Waltham, MA, USA) as described previously, with some modifications. For S. aureus, to obtain the fluorescence kinetics of membrane permeabilization, the bacterial suspension and peptide solutions, prepared in 5% tryptic soy broth (TSB) (v/v) in 0.85% NaCl solution (m/v), were mixed to give a final concentration at 10 µM in a black 96-well plate, and further incubated for 120 min at 37 °C. Subsequently, 5 µM SYTOX Green nucleic acid stain was added into each well and immediately detected by a fluorescent plate reader with excitation of 485 nm and emission of 528 nm. The total permeabilized cells of S. aureus were prepared by treating with 70% isopropanol and further resuspended in 5% TSB/0.85% NaCl solution after washing.

Data set [8] can be described thus: Circular dichroism, helix content by BeStSel. It is filed as physicochemical. The following applies: CD, room temperature, BeStSel analysis. On the procedure:
Figure 8 CD spectra of TPF and the analogs (50 μM) prepared in 10 mM NH4AC, 50% TFE/10 mM NH4AC, 3 mM DPPG/DPPE (88:12) SUVs, and 3 mM DPPC SUVs. The spectra were averaged over three consecutive scans, and the solvent CD signal was subtracted.
The determination of the secondary structure of peptides was conducted using a JASCO J-815 CD Spectropolarimeter (JASCO Inc., Tokyo, Japan) as described in the previous study. Then, 50 μM of each peptide sample was prepared in the aqueous 10 mM ammonium acetate (NH4Ac; Sigma-Aldrich, Gillingham, UK) buffer, 50% (v/v) 2,2,2-trifluoroethanol (TFE; Sigma-Aldrich, Gillingham, UK), and 3 mM DPPG:DPPE (88:12) and DPPC small unilamellar liposomes/vesicles (SUVs) that were used to mimic the bacterial and mammalian erythrocyte cell membranes, respectively. The liposome was hydrated in deionized water and then sonicated for 15 min with an interval 30 s in an ice bath for generating SUVs. Samples were loaded in a 1-mm thickness quartz cuvette and analyzed at room temperature with the following parameters: scan range of 190–250 nm, scanning speed of […], 1 nm bandwidth, and 0.5 nm data pitch. The spectra were obtained by averaging data from three scans. The CD spectra were analyzed by BeStSel (http://bestsel.elte.hu/index.php, accessed on 16 May 2020) for the determination of secondary structure content.

Data set [9] can be described thus: Observation of aggregation: turbidity (absorbance at 600 nm) in media and salt solutions. It is filed as physicochemical. The settings on record: peptide 1 mg/mL; 0.25, 0.5 and 1 M Na2HPO4, CaCl2 or MgCl2; absorbance 600 nm. The procedure: Figure 3 The absorbance of TPF and the analogs prepared in (a) a series of culture media, including PBS, RPMI1640, RPMI1640 with 10% FBS, TSB, and MHB; 0.25, 0.5, and 1 M of (b) Na2HPO4, (c) CaCl2, and (d) MgCl2 solutions. Peptide solutions were prepared from 1 mg/mL, and the wavelength was set as 600 nm. The error bar represents the standard deviation (SD) with three replicates.
The method was followed the previous study with modifications. The purified peptides were prepared at 10 mg/mL in water and subsequently diluted with different solutions, including PBS, RPMI1640, RPMI1640 with 10% FBS, TSB, MHB, Na2HPO4 (0.25, 0.5, and 1 M), CaCl2 (0.25, 0.5, and 1 M), and MgCl2 (0.25, 0.5, and 1 M), in a 96-well plate to achieve the final concentration of 1 mg/mL. The turbidity of each well was detected using the absorbance at 600 nm by a plate reader. The peptides dissolved in water were applied as negative control.

No end group written: not given here.

What is called MBC is the smallest concentration meeting the test's criterion for killing. Lower therefore signals greater bactericidal potency. For orientation: MIC means the least concentration at which growth counts as inhibited. Consider LPLIAGLFGKIF-NH2 [des-Phe1 TPF], for which the MBC in data set [1] is 32 µM; in [2], 128 µM; in data set [3], 128 µM; in data set [4], above 128 µM; in [5] it was 16 µM; in [6] it was 32 µM. For the same substance, the MIC in data set [1] is 32 µM; in [2], 64 µM; in data set [3] it was 128 µM; in data set [4] it was above 128 µM; in data set [5], 16 µM; in data set [6] it was 32 µM. Besides, the membrane permeabilization result in data set [7] was “over 50%”. For the same substance, the “Helix Content % DPPC” value in [8] (50 μM peptide in 3 mM DPPC SUVs (erythrocyte membrane mimic)) is 16.4%. Further, in data set [8] (50 μM peptide in 3 mM DPPG/DPPE (88:12) SUVs (bacterial membrane mimic)), the “Helix Content % DPPG/DPPE” value is reported as 26.7%. In addition, the “Helix Content % 50% TFE” value in data set [8] (50 μM peptide in 50% TFE/10 mM NH4AC, three scans averaged) was 37.7%. The “aggregation (salting-out) in salt solutions” value in data set [9] is given as “low degree of capability for aggregation”.
